Consider 11 compounds from ChEMBL document CHEMBL1201862, “PubChem BioAssay data set” (2004).

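Five concentrations, 48 hours, 96-well plates. Here, GI50 denotes the concentration required for 50% inhibition of growth.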 Calls of active or inactive are those of the source. Rule as the data show it: active = GI50 up to about 1.1 µM and inactive = higher.

Some test systems named below: COLO 205; Hs-578T; EKVX; UO-31; CAKI-1; M14; UACC-62; NCI-H23; OVCAR-8; U-251; DU-145; MDA-MB-231; A549; MDA-N; SN12C; SK-OV-3; NCI-H460; HCT-15; MCF7.
What all share (test): NCI-60 cell line screen, 48 h

As to `Nc1ccc(-c2ccc(Nc3cc(S(=O)(=O)O)c(N)c4c3C(=O)c3ccccc3C4=O)cc2)c(S(=O)(=O)O)c1`, the GI50 in the assay with COLO 205, in the assay with Hs-578T, with EKVX, with UO-31, with CAKI-1 and in the assay on M14 was > 100 µM (inactive) throughout. Further, the GI50 in the assay with UACC-62, in the assay with NCI-H23, with OVCAR-8, in the assay with U-251, in the assay with DU-145 and in the assay on MDA-MB-231 was > 100 µM (inactive) throughout. The GI50 with A549 is > 100 µM (inactive); in the assay on MDA-N it was > 100 µM (inactive); in the assay on SN12C it was > 100 µM (inactive); in the assay with SK-OV-3, > 100 µM (inactive); in the assay on NCI-H460, > 100 µM (inactive); with HCT-15, greater than 100 µM. Moreover, in the assay on MCF7, the GI50 is > 100 µM (inactive).
Turning to `Cc1ccc(S(=O)(=O)N/N=C2\CC3C4C=CC3C2C4)cc1` (centres undefined), the GI50 was > 100 µM (inactive) in the assay with COLO 205; > 100 µM (inactive) in the assay with Hs-578T; > 100 µM (inactive) with EKVX; 21 µM (inactive) with UO-31; > 100 µM (inactive) with CAKI-1; > 100 µM (inactive) in the assay with M14. The GI50 in the assay on UACC-62, with NCI-H23, with OVCAR-8, in the assay on U-251, in the assay with DU-145 and in the assay with MDA-MB-231 was > 100 µM (inactive) throughout. Moreover, the GI50 in the assay with A549 was > 100 µM (inactive); in the assay on MDA-N, > 100 µM (inactive); in the assay on SN12C, > 100 µM (inactive); in the assay on SK-OV-3, > 100 µM (inactive); with NCI-H460 it was > 100 µM (inactive); in the assay on HCT-15 it was greater than 100 µM. In addition, the GI50 in the assay on MCF7 was > 100 µM (inactive).
With `COc1ccccc1CC(=O)C(O)(C(F)(F)F)C(F)(F)F`, the GI50 in the assay on COLO 205, with Hs-578T, in the assay with EKVX, with UO-31, in the assay on CAKI-1 and in the assay with M14 was > 100 µM (inactive) in each case. For the same compound, the GI50 with UACC-62, in the assay on NCI-H23, in the assay with OVCAR-8, in the assay with U-251, in the assay with DU-145 and in the assay with MDA-MB-231 was > 100 µM (inactive) throughout. Also, the GI50 in the assay on A549 is > 100 µM (inactive); with MDA-N, > 100 µM (inactive); in the assay with SN12C, > 100 µM (inactive); in the assay on SK-OV-3, > 100 µM (inactive); with NCI-H460 it was > 100 µM (inactive); in the assay with HCT-15, greater than 100 µM. Also, the GI50 in the assay on MCF7 was > 100 µM (inactive).
Regarding `CC1=CC(C)(C)Nc2ccc(CSc3ccccc3)cc21`, the GI50 is 22 µM (inactive) in the assay with COLO 205; 38.3 µM (inactive) with Hs-578T; 22.1 µM (inactive) with EKVX; 22.1 µM (inactive) in the assay with UO-31; 36.1 µM (inactive) in the assay with CAKI-1; 26.6 µM (inactive) in the assay on M14. Further, the GI50 in the assay on UACC-62 was 41.1 µM (inactive); in the assay with NCI-H23 it was 32.6 µM (inactive); in the assay on OVCAR-8, 46.2 µM (inactive); with U-251, 31.8 µM (inactive); in the assay on DU-145 it was 22.8 µM (inactive); in the assay with MDA-MB-231 it was 32.9 µM (inactive). The GI50 was 21.1 µM (inactive) with A549; 22 µM (inactive) in the assay with MDA-N; 19.1 µM (inactive) in the assay on SN12C; 31.3 µM (inactive) with SK-OV-3; 24.9 µM (inactive) in the assay on NCI-H460; 30.9 µM in the assay on HCT-15. In addition, the GI50 in the assay on MCF7 was 22 µM (inactive).
On to `c1ccc2oc(-c3ccc(-c4nc5ccccc5o4)c4c3CC4)nc2c1`, for which the GI50 in the assay on COLO 205, in the assay with Hs-578T, in the assay on EKVX, in the assay with UO-31, in the assay with CAKI-1 and in the assay with M14 was > 100 µM (inactive) throughout. Also, the GI50 with UACC-62, with NCI-H23, with OVCAR-8, in the assay with U-251, with DU-145 and in the assay on MDA-MB-231 was > 100 µM (inactive) in each case. For the same compound, the GI50 with A549 is > 100 µM (inactive); with MDA-N, > 100 µM (inactive); in the assay with SN12C, > 100 µM (inactive); with SK-OV-3, > 100 µM (inactive); in the assay with NCI-H460 it was > 100 µM (inactive); with HCT-15, greater than 100 µM. The GI50 with MCF7 was > 100 µM (inactive).
Take `NC(CSCc1ccc(I)cc1)C(=O)O` (centres undefined): the GI50 is > 100 µM (inactive) in the assay on COLO 205; 80.7 µM (inactive) in the assay with Hs-578T; > 100 µM (inactive) in the assay on EKVX; > 100 µM (inactive) in the assay on UO-31; > 100 µM (inactive) in the assay with CAKI-1; > 100 µM (inactive) in the assay on M14. Besides, the GI50 with UACC-62, in the assay on NCI-H23, with OVCAR-8, with U-251, in the assay with DU-145 and with MDA-MB-231 was > 100 µM (inactive) each time. Also, the GI50 was > 100 µM (inactive) in the assay on A549; > 100 µM (inactive) in the assay on MDA-N; > 100 µM (inactive) with SN12C; > 100 µM (inactive) in the assay on SK-OV-3; > 100 µM (inactive) in the assay with NCI-H460; greater than 100 µM in the assay on HCT-15. The GI50 with MCF7 is > 100 µM (inactive).
Consider `COc1ccc2c(c1)N(C(C)=O)CN1C(=O)CCC21` (centres undefined), for which the GI50 in the assay with COLO 205, in the assay on Hs-578T, with EKVX, in the assay with UO-31, with CAKI-1 and with M14 was > 100 µM (inactive) each time. The GI50 in the assay on UACC-62, in the assay with NCI-H23, with OVCAR-8, in the assay with U-251, with DU-145 and in the assay on MDA-MB-231 was > 100 µM (inactive) in each case. In addition, the GI50 was > 100 µM (inactive) in the assay with A549; > 100 µM (inactive) with MDA-N; > 100 µM (inactive) in the assay with SN12C; > 100 µM (inactive) with SK-OV-3; > 100 µM (inactive) in the assay with NCI-H460; greater than 100 µM in the assay on HCT-15. Besides, in the assay with MCF7, the GI50 is > 100 µM (inactive).
On to `O=C(Nc1ccc(N2C(=O)CSC2c2cccs2)cc1)c1ccc(N2C(=O)CSC2c2cccs2)cc1` (centres undefined), for which the GI50 in the assay on COLO 205, in the assay on Hs-578T, in the assay with EKVX, in the assay with UO-31, with CAKI-1 and in the assay with M14 was > 100 µM (inactive) in each case. In addition, the GI50 in the assay with UACC-62 is 56.5 µM (inactive); in the assay on NCI-H23, 24.8 µM (inactive); with OVCAR-8 it was > 100 µM (inactive); in the assay on U-251, 86.5 µM (inactive); in the assay with DU-145, > 100 µM (inactive); in the assay on MDA-MB-231, > 100 µM (inactive). The GI50 in the assay with A549 is 37.2 µM (inactive); in the assay with MDA-N, > 100 µM (inactive); in the assay with SN12C, > 100 µM (inactive); in the assay on SK-OV-3 it was > 100 µM (inactive); in the assay with NCI-H460 it was > 100 µM (inactive); in the assay on HCT-15 it was greater than 100 µM. Moreover, in the assay with MCF7, the GI50 was 62.1 µM (inactive).
Turning to `N=C(N)N/N=C/c1c(-c2ccc(Cl)c(Cl)c2Cl)nc2sccn12`, the GI50 is 1.42 µM (inactive) with COLO 205; 1.91 µM (inactive) with Hs-578T; 1.5 µM (inactive) in the assay on EKVX; 1.46 µM (inactive) with UO-31; 1.82 µM (inactive) in the assay with CAKI-1; 1.57 µM (inactive) in the assay with M14. The GI50 in the assay on UACC-62 was 1.44 µM (inactive); in the assay with NCI-H23 it was 1.29 µM (inactive); with OVCAR-8, 1.71 µM (inactive); with U-251, 1.2 µM (inactive); in the assay with DU-145, 1.7 µM (inactive); in the assay with MDA-MB-231 it was 1.21 µM (inactive). The GI50 with A549 is 1.53 µM (inactive); in the assay on MDA-N, 1.59 µM (inactive); in the assay with SN12C, 1.5 µM (inactive); in the assay on SK-OV-3, 1.91 µM (inactive); in the assay with NCI-H460, 1.7 µM (inactive); with HCT-15 it was 1.63 µM. Besides, in the assay on MCF7, the GI50 was 2.05 µM (inactive).
`Cc1ccsc1C(=O)C(CC(=O)c1cccs1)c1ccsc1` (centres undefined): the GI50 in the assay on COLO 205 was > 100 µM (inactive); with Hs-578T, > 100 µM (inactive); in the assay with EKVX it was 79.6 µM (inactive); in the assay with UO-31 it was 54.1 µM (inactive); in the assay with CAKI-1 it was > 100 µM (inactive); in the assay with M14, > 100 µM (inactive). For the same compound, the GI50 with UACC-62 was > 10 µM (inactive); in the assay on NCI-H23 it was > 100 µM (inactive); in the assay on OVCAR-8, > 100 µM (inactive); with U-251 it was > 100 µM (inactive); with DU-145, > 100 µM (inactive); in the assay on MDA-MB-231, 77.6 µM (inactive). Also, the GI50 with A549 is > 100 µM (inactive); with MDA-N it was 64.6 µM (inactive); with SN12C, > 100 µM (inactive); in the assay on SK-OV-3, > 100 µM (inactive); with NCI-H460, 33.5 µM (inactive); with HCT-15, greater than 100 µM. Besides, the GI50 in the assay on MCF7 is 76.2 µM (inactive).
For the compound `Clc1nc(-c2ccccc2)nc(Cl)c1Cl`, the GI50 in the assay with COLO 205 was 10.3 µM (inactive); with Hs-578T, 15 µM (inactive); in the assay on EKVX, 16.2 µM (inactive); with UO-31, 40.8 µM (inactive); in the assay on CAKI-1, 3.09 µM (inactive); with M14, 7.14 µM (inactive). For the same compound, the GI50 in the assay with UACC-62 is 13.7 µM (inactive); in the assay on NCI-H23 it was 14.7 µM (inactive); in the assay on OVCAR-8, 14.6 µM (inactive); in the assay on U-251, 8.28 µM (inactive); with DU-145, 15.8 µM (inactive); in the assay with MDA-MB-231 it was 13.7 µM (inactive). The GI50 was 15.4 µM (inactive) with A549; 13 µM (inactive) with MDA-N; 16.8 µM (inactive) in the assay on SN12C; 14 µM (inactive) in the assay with SK-OV-3; 18.7 µM (inactive) in the assay with NCI-H460; 7.38 µM in the assay with HCT-15. In addition, in the assay on MCF7, the GI50 was 8.15 µM (inactive).
